Tests used:
[1] = Binding assay: competition with ConA-FITC on glucose-terminated magnetic beads; details: relative to ConA; 2.4 μM ConA-FITC, boronic acid 2.5 μM to 20 μM, PBS pH 7.2
Procedure: The binding affinity of boronic acid derivatives to glucose was determined by competition assay using ConcanavalinA (ConA) as the competitive standard, and varying concentrations of the boronic acid derivatives. Carboxy-terminated magnetic beads were activated by suspending the beads in 100 mM 2-(N-morpholino)ethanesulfonic acid (MES) buffer (pH 4.5). Glucosamine (100 mg/mL) was conjugated to the activated magnetic beads using carbodiimide coupling with 1-ethyl-3-(3-dimethylaminopropyl)carbodiimide (EDC) as a crosslinker. The conjugation reaction was carried out in a 96 well plate. The reaction was run for 24 h. The beads were separated by placing the microplate on a magnetic separator and were washed thoroughly with PBS at pH 7.2 to remove unbound glucose, excess EDC, and N-hydroxysulfosuccinimide (Sulfo-NHS).
The glucose terminated beads were co-incubated for 1 h with 2.4 μM ConA (a known binder of carbohydrates) fluorescently tagged with fluorescein isothiocyanate (ConA-FITC), and titrated with concentrations ranging from 2.5 μM to 20 μM of each boronic acid derivative tested. The following controls were used: (A) carboxy-terminated magnetic beads (not conjugated to glucose) were treated with ConA-FITC to determine non-specific binding; and (B) glucose conjugated beads were treated with a high concentration of non-fluorescent ConA to determine maximal binding.
The wells were washed three times with PBS at pH 7.2 to remove unbound boronic acid derivatives and FITC-ConA. The beads were re-suspended in PBS and stirred for 15 min at rt before measuring FITC fluorescence (excitation: 495 nm, top emission: 520 nm; 6 flashes per well; average of n=3 wells in a Flexstation 11^384 microplate reader to quantify the amount of glucose bound to the boronic acids). The fluorescence intensity was measured and used as an indication of the amount of ConA bound to the surface of the beads, or [ConAs]. The ConA-sugar interaction was expected to be inhibited by the boronic acid derivatives, which can bind the sugar molecules and displace the bound ConA-FITC, thereby causing a decrease in fluorescence intensity of the mixture.
The binding constant of the boronic acid derivatives was calculated from the fluorescence intensity. The reduction of fluorescence intensity is related to [ConAs] by Equation 2.
[formula] The relationship between [ConAs] and the amount of boronic acid [BA] is given by Equation 3.
[formula] Simple rearrangement yields Equation 4, from which the ratio of the two equilibrium constants (KConA/KBA) can be derived.
[formula] • The concentration of sugar sites (S1) can be calculated from the intercept of a plot of 1/[ConAs] vs 1/[BA].

HeLa cells = assay: MTT assay for cytotoxicity; details: 2 h
Procedure: The cytotoxicity of the boronic acid derivatives from Table 1 was studied by MTT assay. 150,000 HeLa cells were plated in 96 well plates on the night before the experiments. On the day of experiments, the cells were treated with the boronic acid derivatives at three different concentrations (40 nM, 80 nM, and 160 nM) for 2 h. At the end of the incubation, MTT assays (In-Vitro toxicology MTT based assay kit, Sigma Aldrich, MO) were performed according to the manufacturer's protocol.

NF-κB = NF-κB assay for inflammation (nuclear translocation of NF-κB, immunocytochemistry, PCC); details: HeLa cells; for Inflammation (PCC) 40 nM / Inflammation (PCC) 80 nM / Inflammation (PCC) 160 nM: 2 h, PCC between nuclear and cytoplasmic fraction of NF-κB
Procedure: 15,000 HeLa cells were plated in 96 well plates the night before the experiments. On the day of the experiments, the cells were treated with the boronic acids (Table 1, below) at three different concentrations (40 nM, 80 nM, and 160 nM) for 2 h. At the end of the incubation, cells were washed with phosphate buffered saline (PBS) and were fixed in 4% paraformaldehyde for 15 min and permeablized with 0.01% Triton X-100 in PBS for 10 min. The cells were washed with PBS three times. Nonspecific sites were blocked with 5% bovine serum albumin (BSA) in PBS and incubated with the Anti-NF-κB for 1 h, followed by incubation with fluorescein isothiocyanate (FITC)-labeled secondary antibody. After washing the cells at the end of the incubation, the cells were treated with 4′,6-diamidino-2-phenylindole (DAPI) for 1 min and kept at 4° C. until further analysis. Images of the cells were acquired with a Beckman-Coulter 100 automated high-throughput microscope system and analyzed using Cytseer software (Vala Sciences, CA). The co-localization of NF-κB was quantified by measuring the PCC between the nuclear and cytoplasmic fraction of the NF-κB molecule. The PCC is a measure of the overlap between the pixel intensities of the nuclear and NF-κB images of the same cell. The PCC values can range from −1 to 1. […] A negative correlation (negative PCC value) indicates an absence of nuclear translocation.

Row | SMILES | Sugar Binding Affinity Log(KaBA/KaConA) [1] | MTT (% Cell Survival) 40 nM (HeLa cells) | MTT (% Cell Survival) 80 nM (HeLa cells) | MTT (% Cell Survival) 160 nM (HeLa cells) | Inflammation (PCC) 40 nM (NF-κB) | Inflammation (PCC) 80 nM (NF-κB) | Inflammation (PCC) 160 nM (NF-κB) | nuclear or cytoplasmic localization of NF-κB (FIG. 4 images) (NF-κB; boronic acids 80 nM, 2 hrs, LPS positive control)
1 | CC(C)(C)Oc1ncc(B(O)O)c(OC(C)(C)C)n1 [2,4-di-tert-butoxypyrimidin-5-ylboronic acid] | 0.008 | 100.46% | 90.60% | 71.81% | −0.0888 | 0.03106 | 0.1726 | predominantly cytoplasmic NF-κB
2 | OB(O)c1ccc(Cl)cc1Cl [2,4-dicholorophenylboronic acid] | −0.93 | 99.29% | 81.59% | 79.9% | −0.0502 | 0.09386 | 0.3067 | 
3 | OB(O)c1cccnc1Br [2-bromopyridine-3-boronic acid] | −2.9 | 102.96% | 94.00% | 87.88% | −0.0553 | −0.0396 | 0.1494 | 
4 | CN(C)c1cccc(B(O)O)c1 [3-(N,N-dimethylamino)phenyl boronic acid] | −0.14 | 123.37% | 86.2247% | 85.91% | −0.1236 | −0.0401 | 0.1862 | 
5 | OB(O)c1cccc(Cl)c1 [3-chlorophenylboronic acid] | −1.03 | 97.1779% | 73.129% | 38.55% | −0.0824 | 0.03311 | 0.3965 | 
6 | NC(=O)c1ccc(B(O)O)cc1 [4-aminocarbonylphenylboronic acid] | −1.03 | 86.57% | 97.67% | 57.28% | −0.0838 | 0.01211 | 0 | 
7 | CCS(=O)(=O)c1ccc(B(O)O)cc1 [4-ethylsulfonyl-phenylboronic acid] |  | 67.61% | 66.47% | 37.46% | 0.00184 | 0.1802 | 0.129 | 
8 | CC(=O)c1ccc(B(O)O)s1 [5-acetyl-2-thiopheneboronic acid] |  | 84.50% | 82.81% | 51.27% | 0.02454 | 0.06312 | 0.2343 | 
9 | OB(O)c1cc2cc(Br)ccc2s1 [5-bromobenzo-B-thophene-2boronic acid] |  | 71.83% | 81.40% | 90.42% | −0.0244 | −0.01 | 0.1265 | 
10 | OB(O)c1cncc(Br)c1 [5-bromopyridine-3-boronic acid] |  | 134.748% | 37.2764% | 30.04% | −0.038 | 0.1311 | 0.2913 | 
11 | COc1ccc(C#N)cc1B(O)O [5-cyano-2-methoxyphenylboronic acid] |  | 81.55% | 49.84% | 62.08% | −0.0808 | −0.0523 | −0.08086 | 
12 | N#Cc1ccc(B(O)O)s1 [5-cyanothiophene-2-boronic acid] |  | 80.56% | 40.00% | 44.78% | −0.01 | 0.1051 | 0.2434 | 
